BigSolDB 2.1

NC(N)=C([N+](=O)[O-])[N+](=O)[O-]
solubility (mole fraction)
Conditions	293.15 K	298.15 K	303.15 K	308.15 K	313.15 K	318.15 K	323.15 K	328.15 K	333.15 K
in 2-butanone	0.00503	0.0056	0.00613	0.00659	0.00714	0.00782	0.00837	0.00899	0.00957
in DMSO	0.172	0.177	0.181	0.184	0.189	0.193	0.197	0.201	0.206
in MIBK	0.00278	0.00327	0.00358	0.00402	0.00428	0.00467	0.00512	0.00553	0.006
in cyclopentanone	0.00715	0.00767	0.0083	0.0089	0.00948	0.0103	0.011	0.0119	0.0128
